In patent US20260042731A1, “(2,4-DICHLOROPHENOXY)ACETIC ACID ANALOGS” (CORTEVA AGRISCIENCE LLC, priority 2022, published 2026):
Where two headings read alike, the source gives them in different places.

How the values were obtained:
[1] = tested on: Velvetleaf (ABUTH); experiment: Greenhouse post-emergence mixture trials, percent visual control; format: in vivo; conditions: ABUTH, 21 DAA; for pest or weed control at 560 g/ha / pest or weed control at 1120 g/ha: Abutilon theophrasti, post-emergence, 504 h; for pest or weed control at 560 g/ha: compound 560 g ae/ha; for pest or weed control at 1120 g/ha: compound 1120 g ae/ha, read-out: % Control
[2] = tested on: Common Lambsquarters (CHEAL); experiment: as above; format: in vivo; conditions: CHEAL, 21 DAA; for pest or weed control at 560 g/ha / pest or weed control at 1120 g/ha: Chenopodium album, post-emergence, 504 h, no mixing partner; for pest or weed control at 1120 g/ha: read-out: % Control
[3] = tested on: Corn (ZEAMX); experiment: as above; format: in vivo; conditions: ZEAMX, 21 DAA, no mixing partner; for % Control / plant injury at 560 g/ha: compound 560 g ae/ha
[4] = tested on: glyphosate resistant Conyza canadensis (L.) (ERICA), horseweed; experiment: Postemergence herbicide evaluation, growth of Conyza canadensis (ERICA); format: in vivo; conditions: Erigeron canadensis, post-emergence, percent reduction in plant size vs untreated control, read-out: Ave. ERICA; for pest or weed control at 280 g/ha: 280 g ae/ha; for pest or weed control at 560 g/ha: 560 g ae/ha
[5] = Volatility of compounds measured by thermogravimetric analysis (TGA); format: physicochemical
[6] = tested on: Chenopodium album (CHEAL), common lambsquarters; experiment: Postemergence herbicide evaluation, growth of Chenopodium album (CHEAL); format: in vivo; conditions: Chenopodium album, post-emergence, percent reduction in plant size vs untreated control, read-out: Ave. CHEAL; for pest or weed control at 280 g/ha: 280 g ae/ha; for pest or weed control at 560 g/ha: 560 g ae/ha
[7] = tested on: weeds ABUTH, AMATA, AMBEL, CHEAL, ERICA; experiment: Postemergence herbicide evaluation, overall average % weed control across ABUTH, AMATA, AMBEL, CHEAL and ERICA; format: in vivo; conditions: post-emergence, average over five weeds, read-out: Overall Ave % Weed Control; for pest or weed control at 280 g/ha: 280 g ae/ha; for pest or weed control at 560 g/ha: 560 g ae/ha
[8] = tested on: Ambrosia artemisiifolia (AMBEL), common ragweed; experiment: Postemergence herbicide evaluation, growth of Ambrosia artemisiifolia (AMBEL); format: in vivo; conditions: Ambrosia artemisiifolia, post-emergence, percent reduction in plant size vs untreated control, read-out: AVE. AMBEL; for pest or weed control at 280 g/ha: 280 g ae/ha; for pest or weed control at 560 g/ha: 560 g ae/ha
[9] = tested on: Amaranthus rudis (AMATA), tall water hemp; experiment: Postemergence herbicide evaluation, growth of Amaranthus rudis (AMATA); format: in vivo; conditions: Amaranthus tuberculatus, post-emergence, percent reduction in plant size vs untreated control, read-out: Ave. AMATA; for pest or weed control at 280 g/ha: 280 g ae/ha; for pest or weed control at 560 g/ha: 560 g ae/ha
[10] = tested on: Abutilon theophrasti (ABUTH), velvetleaf; experiment: Postemergence herbicide evaluation, growth of Abutilon theophrasti (ABUTH); format: in vivo; conditions: Abutilon theophrasti, post-emergence, percent reduction in plant size vs untreated control, read-out: AVE. ABUTH; for pest or weed control at 280 g/ha: 280 g ae/ha; for pest or weed control at 560 g/ha: 560 g ae/ha
[11] = no mixing partner, Trial Bridge 3
[12] = Trial Bridge 1, mixing partner none
[13] = Trial Bridge 2, no mixing partner
[14] = Trial Bridge 1, compound 560 g ae/ha + Arylex 5 g ai or ae/ha
[15] = Trial Bridge 1, compound 560 g ae/ha + Mesotrione 150 g ai or ae/ha
[16] = Trial Bridge 1, compound 1120 g ae/ha + Arylex 5 g ai or ae/ha
[17] = Trial Bridge 1, compound 1120 g ae/ha + Glufosinate 600 g ai or ae/ha
[18] = Trial Bridge 1, compound 1120 g ae/ha + Mesotrione 150 g ai or ae/ha
[19] = Trial Bridge 2, compound 560 g ae/ha + Saflufenacil 25 g ai or ae/ha
[20] = Trial Bridge 2, compound 560 g ae/ha + Saflufenacil 75 g ai or ae/ha
[21] = Trial Bridge 2, compound 560 g ae/ha + Trifludimoxazin 12.5 g ai or ae/ha
[22] = Trial Bridge 2, compound 560 g ae/ha + Trifludimoxazin 50 g ai or ae/ha
[23] = Trial Bridge 2, compound 1120 g ae/ha + Saflufenacil 25 g ai or ae/ha
[24] = Trial Bridge 2, compound 1120 g ae/ha + Saflufenacil 75 g ai or ae/ha
[25] = Trial Bridge 2, compound 1120 g ae/ha + Trifludimoxazin 12.5 g ai or ae/ha
[26] = Trial Bridge 2, compound 1120 g ae/ha + Trifludimoxazin 50 g ai or ae/ha

SMILES: O=C(COc1ccc(Cl)cc1Cl)Nc1cccnc1 [Compound D27]
- % Control ([1]; compound 560 g ae/ha + Sulfentrazone 347 g ai/ha, Trial Bridge 3): 100%
- % Control ([1]; compound 1120 g ae/ha + Sulfentrazone 130 g ai/ha, Trial Bridge 3): 100%
- % Control ([1]; compound 1120 g ae/ha + Sulfentrazone 347 g ai/ha, Trial Bridge 3): 100%
- pest or weed control at 560 g/ha [1, 11]: 100%
- pest or weed control at 1120 g/ha [1, 11]: 99%
- pest or weed control at 560 g/ha [1, 12]: 100%
- pest or weed control at 1120 g/ha [1, 12]: 100%
- pest or weed control at 560 g/ha [1, 13]: 100%
- pest or weed control at 1120 g/ha [1, 13]: 100%
- % Control [1, 14]: 100%
- % Control ([1]; Trial Bridge 1, compound 560 g ae/ha + Glufosinate 600 g ai or ae/ha): 100%
- % Control ([1]; Trial Bridge 1, compound 560 g ae/ha + Glyphosate 1120 g ai or ae/ha): 100%
- % Control [1, 15]: 100%
- % Control ([1]; Trial Bridge 1, compound 560 g ae/ha + diclosulam 35 g ai or ae/ha): 100%
- % Control [1, 16]: 100%
- % Control [1, 17]: 100%
- % Control ([1]; Trial Bridge 1, compound 1120 g ae/ha + Glyphosate 1120 g ai or ae/ha): 100%
- % Control [1, 18]: 100%
- % Control ([1]; Trial Bridge 1, compound 1120 g ae/ha + diclosulam 35 g ai or ae/ha): 100%
- % Control [1, 19]: 100%
- % Control [1, 20]: 100%
- % Control [1, 21]: 100%
- % Control [1, 22]: 100%
- % Control [1, 23]: 100%
- % Control [1, 24]: 100%
- % Control [1, 25]: 100%
- % Control [1, 26]: 100%
- % Control [2, 19]: 100%
- % Control [2, 20]: 100%
- % Control [2, 21]: 100%
- % Control [2, 22]: 100%
- % Control [2, 23]: 100%
- % Control [2, 24]: 100%
- % Control [2, 25]: 100%
- % Control [2, 26]: 100%
- % Control ([2]; Trial Bridge 3, compound 560 g ae/ha + Sulfentrazone 130 g ai/ha): 100%
- % Control ([2]; Trial Bridge 3, compound 560 g ae/ha + Sulfentrazone 347 g ai/ha): 100%
- % Control ([2]; Trial Bridge 3, compound 1120 g ae/ha + Sulfentrazone 130 g ai/ha): 100%
- % Control ([2]; Trial Bridge 3, compound 1120 g ae/ha + Sulfentrazone 347 g ai/ha): 100%
- pest or weed control at 560 g/ha ([2]; Trial Bridge 2, compound 560 g ae/ha): 95%
- pest or weed control at 1120 g/ha ([2]; Trial Bridge 2, compound 1120 g ae/ha): 98%
- pest or weed control at 560 g/ha ([2]; Trial Bridge 3, compound 560 g ae/ha): 95%
- pest or weed control at 1120 g/ha ([2]; Trial Bridge 3, compound 1120 g ae/ha): 100%
- pest or weed control at 560 g/ha ([2]; Trial Bridge 1, compound 560 g ae/ha): 98%
- pest or weed control at 1120 g/ha ([2]; Trial Bridge 1, compound 1120 g ae/ha): 100%
- % Control [2, 14]: 100%
- % Control [2, 15]: 100%
- % Control [2, 16]: 100%
- % Control [2, 17]: 100%
- % Control [2, 18]: 100%
- % Control ([3]; Trial Bridge 1): 5%
- % Control ([3]; Trial Bridge 3): 5%
- plant injury at 560 g/ha ([3]; Zea mays, post-emergence, 504 h, Trial Bridge 1): 5%
- plant injury at 560 g/ha ([3]; Zea mays, post-emergence, 504 h, Trial Bridge 3): 5%
- plant injury at 1120 g/ha ([3]; Zea mays, post-emergence, 504 h, compound 1120 g ae/ha, Trial Bridge 3): 5%
- pest or weed control at 280 g/ha ([4]; 168 h, 7 DAA): 67.5%
- pest or weed control at 560 g/ha ([4]; 168 h, 7 DAA): 85%
- pest or weed control at 280 g/ha ([4]; 336 h, 14 DAA): 100%
- pest or weed control at 560 g/ha ([4]; 336 h, 14 DAA): 100%
- pest or weed control at 280 g/ha ([4]; 504 h, 21 DAA): 98.5%
- pest or weed control at 560 g/ha ([4]; 504 h, 21 DAA): 99%
- TGA Data (rate of weight loss, volatility) [5]: 0.01 µg/min
- pest or weed control at 280 g/ha ([6]; 168 h, 7 DAA): 82.5%
- pest or weed control at 560 g/ha ([6]; 168 h, 7 DAA): 80%
- pest or weed control at 280 g/ha ([6]; 336 h, 14 DAA): 85%
- pest or weed control at 560 g/ha ([6]; 336 h, 14 DAA): 97.5%
- pest or weed control at 280 g/ha ([6]; 504 h, 21 DAA): 94%
- pest or weed control at 560 g/ha ([6]; 504 h, 21 DAA): 97.5%
- pest or weed control at 280 g/ha ([7]; 168 h, 7 DAA): 78%
- pest or weed control at 560 g/ha ([7]; 168 h, 7 DAA): 84.4%
- pest or weed control at 280 g/ha ([7]; 336 h, 14 DAA): 87.3%
- pest or weed control at 560 g/ha ([7]; 336 h, 14 DAA): 97%
- pest or weed control at 280 g/ha ([7]; 504 h, 21 DAA): 94.9%
- pest or weed control at 560 g/ha ([7]; 504 h, 21 DAA): 99.3%
- pest or weed control at 280 g/ha ([8]; 168 h, 7 DAA): 85%
- pest or weed control at 560 g/ha ([8]; 168 h, 7 DAA): 85%
- pest or weed control at 280 g/ha ([8]; 336 h, 14 DAA): 77.5%
- pest or weed control at 560 g/ha ([8]; 336 h, 14 DAA): 99%
- pest or weed control at 280 g/ha ([8]; 504 h, 21 DAA): 100%
- pest or weed control at 560 g/ha ([8]; 504 h, 21 DAA): 100%
- pest or weed control at 280 g/ha ([9]; 168 h, 7 DAA): 80%
- pest or weed control at 560 g/ha ([9]; 168 h, 7 DAA): 92%
- pest or weed control at 280 g/ha ([9]; 336 h, 14 DAA): 92.5%
- pest or weed control at 560 g/ha ([9]; 336 h, 14 DAA): 90%
- pest or weed control at 280 g/ha ([9]; 504 h, 21 DAA): 85%
- pest or weed control at 560 g/ha ([9]; 504 h, 21 DAA): 100%
- pest or weed control at 280 g/ha ([10]; 168 h, 7 DAA): 75%
- pest or weed control at 560 g/ha ([10]; 168 h, 7 DAA): 80%
- pest or weed control at 280 g/ha ([10]; 336 h, 14 DAA): 81.5%
- pest or weed control at 560 g/ha ([10]; 336 h, 14 DAA): 98.5%
- pest or weed control at 280 g/ha ([10]; 504 h, 21 DAA): 97%
- pest or weed control at 560 g/ha ([10]; 504 h, 21 DAA): 100%
